Assay results taken from patent publication US20240000745A1, “COMPOSITIONS AND METHODS USING A COMBINATION OF OLEUROPEIN AND QUERCETIN FOR CELLULAR ENERGY” (SOCIETE DES PRODUITS NESTLE S.A., priority 2020, published 2024).

Test system: HeLa cells
Assay: Mitochondrial calcium elevation in histamine-stimulated HeLa cells (mitochondrially targeted aequorin luminescence)
Assay type: cell-based
Method: To test the effect of oleuropein (or oleuropein aglycone), quercetin and their combination in living cells, the inventors measured mitochondrial calcium elevation in HeLa cells. HeLa cells were purchased from ATCC. HeLa cells were seeded in 96-well plates at a density of 50000 cells per well in minimal essential medium (DMEM, Gibco), high glucose, +10% fetal calf serum.
Mitochondrial calcium measurements were carried out using Hela cells infected with the adenovirus (from Sirion biotech) expressing the mitochondrially targeted calcium sensor mitochondrial mutated aequorin (Montero et al., 2004). For aequorin reconstitution, 24 hours after infection, cells were incubated for 2 h at room temperature (22±° C.) in standard medium (145 mM NaCl, 5 mM KCl, 1 mM MgCl2, 1 mM CaCl2, 10 mM glucose and 10 mM Hepes, pH 7.4) with 1 μM wild-type coelenterazine.
For treatment, compounds were directly added to the cell culture or myotubes cultures 2 hours before measurements. Luminescence was measured at the FLIPR Tetra Aequorin (Molecular Devices). […] Calibration of the luminescence data into calcium concentration was carried out using an algorithm, as described previously (Alvarez & Montero, 2002). Custom module analysis based on Excel (Microsoft) and GhaphPad Prism 7.02 (GraphPad) software was used for quantification.

C/C=C1/C(O)OC=C(C(=O)OC)[C@H]1CC(=O)OCCc1ccc(O)c(O)c1 (mixture of isomers) [oleuropein aglycone]
synergism with quercetin to activate mitochondria via mitochondrial Ca2+ rise (measured effect of the combination vs. theoretical sum of the single effects) (3 μM + 3 μM quercetin, integrated mitochondrial calcium rise evoked by 100 μM histamine, HeLa cells, compounds added 2 hours before measurement, P<0.05): synergizes with quercetin
level of synergism in combination with quercetin, compared between oleuropein and oleuropein aglycone (synergisms calculated as in FIG. 1 and FIG. 2, n=6, NS at P<0.05 (Student's t-test)): same level of synergism
